What was measured:
[1] = test system: genes involved in cardio-myogenesis (NKX2-5, GATA-4, MEF2C, MYH7B, GJA1, TNNT2); experiment: Cardio-myogenic induction with 5-azacytidine, relative gene expression by RT-qPCR; format: cell-based, human; conditions: all MSC sources treated with 5-aza, 30 days of culture after induction
Text: In order to assess chorion, decidua, gelatin of Wharton, and bone marrow MSCs cardio-myogenic potential, 3000 cells per cm^2 of each one of the MSCs were planted in biologic triplicate (3 different donors) in a plate of 6, leaving 3 bowls for induced condition and other 3 for control condition. This method was developed to obtain cells for assessment through RT-qPCR. However, in order to assess protein expression through indirect immunofluorescence (IFI), cells were planted on a […] circular glass cover placed on a 24-bowl plate, leaving 12 bowls for induced condition and 12 bowls for control condition. […]
The polymerase chain reaction in real time, preceded by reverse transcription (RT-qPCR), was based on quantification kinetics that allowed calculating the messenger RNA through the recording of PCR product forming in real time. This was the quantification, during the reaction exponential stage, of amplified PCR products and labeled with fluorochrome. In this work, a relative quantification of genes of interest was carried out, i.e. a gene of interest expression level is obtained compared to another one that keeps its expression constant and is called standardizing gene; therefore, in this thesis human gene B2M was selected as standardizing. […]

[2] = test system: MSCs; experiment: MSC morphology during cardiac induction with 5-aza; format: cell-based, human; conditions: MSCs treated with 5-aza
Text: In order to establish morphology changes occurred in MSCs treated with 5-aza, photographs were taken daily for later analysis. […] After 20 days, confluence in both conditions was quite similar and reached 100%. In some dishes, it was common to find a reduced percentage (10%) of cells with vacuoles inside them. On the other hand, it was also noted that a large percentage (approximately 70%) of cells adopted a rounded and flat morphology, while other presented a longish tubular morphology which, in some cases, were multi-core.
For induction, MSCs we incubated with DMEM, 2% FBS, 1% Pen/Strep, 1% L-glutamine, supplemented with 10 μM 5-zacitidine (Sigma, USA) during 24 hours, and kept in a humidified and thermo-regulated incubator at 37° C. and 5% CO2. Later, they were removed from the induction medium, cells were washed three times with PBS 1× adjusted to ph 7.4 (Life Technologies, USA), and cultured in a maintenance medium during 30 days, being renewed every three days. The control condition corresponded to cells submitted to DMEM 2% FBS with no 5-aza during 24 hours, and then cultured in maintenance medium during 30 days.

Nc1ncn([C@@H]2O[C@H](CO)[C@@H](O)[C@H]2O)c(=O)n1 [5-aza, 5-azacytidine]
relative expression of all genes associated to cardio-myogenesis compared to control [1]: significant increase | percentage of cells with rounded and flat morphology [2]: approximately 70% | percentage of cells with vacuoles inside them ([2]; in some dishes): 10%

— patent US20160193250A1, “CHORION-DERIVED MSCS CELLS AND CONDITIONED MEDIA AS INDUCER FOR ANGIOGENESIS APPLICATION FOR THE TREATMENT OF CARDIAC DEGENERATION” (CELLS FOR CELLS, priority 2013, published 2016)
